Where no end group is shown, it is not given here. PEG10kDa = 10 kDa linear methoxy-PEG propionaldehyde on the N-terminus; PEG20kDa = 20 kDa linear methoxy-PEG propionaldehyde on the N-terminus
Experiments:
[1] = test system: Alexa 488-labeled human plasma FN; experiment: Matrix Assembly in vitro Assay (MAA), A488-FN deposition by AH1F fibroblasts; assay type: cell-based; details: 24 hours, viability-normalized fluorescence, n=4, FUD run alongside each conjugate
Method: Matrix Assembly Assay: The matrix assembly assay was conducted in the 96-well plate format as described in the art. AH1F human skin fibroblast cells resuspended in 2% fetal bovine serum were added to each well for a density of 60,000 cells per well. A 1 hr incubation period at 37° C. followed to allow cell adhesion and spreading. FUD, PEG-FUD, or PEG-mFUD were added to each well following incubation. Immediately, Alexa Fluor® 488 fluorescence labeled human plasma fibronectin (A488-FN) was then added to each well for a final FN concentration of 11 μg/mL. The cells were then incubated for 24 hours at 37° C. Non-assembled FN was removed from each well by washing with Hank's Balanced Salt Solution (HBSS) containing Ca^2+ and Mg^2+. The well volume was restored to 60 μL with HBSS and a fluorescence reading from the bottom of each well was taken using a Synergy™ H1 (Biotek) plate reader (excitation: 485 nm, Emission: 538 nm). Cell viability was quantified using CellTiter-Glo® cell viability assay using the manufacturer's protocol. A 30 μL aliquot of HBSS was removed from each well and was replaced with 30 μL of the luminescence reagent prepared shortly beforehand. Luminescence was quantified using the same plate reader. The average of fluorescence values of a no A488FN or inhibitor control group were routinely subtracted from the readings of each well and were normalized using each well's corresponding luminescence value. Lastly, the cell viability normalized fluorescence values were expressed as a percentage of the 0 nM drug control group. The final results were processed using Graphpad Prism 7.0 software. IC50 values were extracted using a four-parameter dose-response curve function. Student's t test was used to determine significance of differences among peptides at a given drug concentration.
The PEG-FUD FN fibrillogenesis inhibitory performance was evaluated in vitro using the matrix assembly assay (MAA). The methodology of this assay is depicted in FIG. 8. The MAA quantifies ECM deposition of exogenous AlexaFluor® 488-labeled FN (A488FN) by a confluent monolayer of fibroblasts after an incubation period by measuring fluorescence of deposited FN. In this study, the performance of PEG-FUD peptides was compared to that of FUD and the PEG-mFUD control peptide using the AH1F human foreskin fibroblast cell line.

[2] = Fluorescence imaging (IVIS) of subcutaneous dose absorption; assay type: in vivo, mouse; details: for % dose remaining at the site of injection after 24 hours / apparent half-life at the site of injection: s.c. 12.5 mg/kg FUD equivalents; for apparent half-life at the site of injection: spiked with 1.5% Cy5 labeled drug, nude mice
Method: Preparation of Animal Experiment FUD and 10-40 kDa PEG-FUD Drug Dose: A 12.5 mg FUD equivalents per kg of mouse weight drug dose spiked with 1.5% Cy5 labeled drug was prepared by mixing an appropriate amount of unlabeled and labeled drug in a conical vial. The drug was then dialyzed ON into phosphate buffered saline (pH 7.4) using a 3000 MWCO dialysis membrane. The total volume of the dose was reduced to the appropriate value using a 3000 MWCO Amicon® Ultra-15 centrifugal unit. The final concentration of the drug was determined using a UV-vis spectrophotometer and the 646 nm extinction coefficient of Cy5, ε=271000 L·mol^−1·cm^−1.
10 week old mice weighing 20-23 g were placed under 2% isoflurane anesthesia and positioned on their abdomen inside of an IVIS Spectrum In Vivo Imaging System. A 100 uL dose containing 0.27 mg (12.5 mg/kg) of FUD or FUD equivalents of 10-40 kDa PEG-FUD that was spiked with 1.5% Cy5 labeled drug was delivered subcutaneously between the shoulder blades of the animals (n=3 per treatment group). The animals were imaged before the injection, immediately following injection, and at time points of 30 minutes and 1, 3, 6, 12, 24, 36, and 48 hours. The animals were sacrificed following the last time point and their organs were harvested for ex vivo fluorescence imaging and drug extraction and quantification. LivingImage® (PerkinElmer) software was used to analyze the views of each animal group. The autodraw feature of the software set to a 5% threshold was used to create unique regions of interest (ROI) on each animal at t=30 mins views that were consistently applied to each subsequent time point views to quantify drug levels present at the site of injection. Baseline autoflorescence values calculated from ROIs applied to “before injection” views were subtracted from the values of each time point's animals. The ROI values obtained from the t=30 mins views were used to calculate % dose remaining for each subsequent time point.

[3] = target: human plasma FN; experiment: Isothermal Titration calorimetry (ITC) of peptide binding to fibronectin; details: pH 7.4 PBS, 25° C., triplicate
Method: Isothermal Titration calorimetry (ITC): ITC experiments were performed using a VP-ITC microcalorimeter (MicroCal, LLC) with a cell volume of 2.2 mL. In a typical experiment, the cell was filled with 1.4 mL of 2 μM human plasma FN and the syringe was filled with 1 mL of 28 μM FUD or PEG-FUD peptides. The temperature was set to 25° C. The titration experiment was performed in 39 injections (1×1, 4×4, and 34×8 μL) delivered in 120 sec intervals. Prior to injection, both FN and the peptides were dialyzed in separate dialysis bags overnight into the same PBS buffer (pH 7.4) solution. Routine analysis involved discarding of the first data point and subtraction of peptide into PBS buffer control run. Data were fit using one set of sites model Lavenberg-Marquardt nonlinear regression in Origin 7.0.
The binding of 10 kDa, 20 kDa, and 40 kDa PEG-FUD to FN was studied using Isothermal Titration calorimetry (ITC). This technique was used to determine the thermodynamic parameters as well as the binding constant (Kd) of the interaction. The peptide was injected into a human plasma FN solution in PBS at pH 7.4 and 25° C. in triplicate runs. […] A Kd of 6 (±3) nM was detected for FUD:FN. […] Similar entropy change of −65 (±3) cal/mol, −74 (±7) cal/mol, −66 (±7) cal/mol, and −73 (±2) and enthalpy change of −31 (±1) kcal/mol, −34 (±2) kcal/mol, −30 (±1) kcal/mol, and −32.5 (±0.5) kcal/mol were detected for the interaction of FUD and 10 kDa, 20 kDa, and 40 kDa PEG-FUD with FN, respectively. […] This observation is contrary to the expectation of PEG attachment diminishing a drug's affinity for its binding partner and presents an unexpected but desired feature of the PEG-FUD peptide.

[4] = literature examples; cited from earlier work

Sequence of human plasma FN (P02751 32-608 limits assumed): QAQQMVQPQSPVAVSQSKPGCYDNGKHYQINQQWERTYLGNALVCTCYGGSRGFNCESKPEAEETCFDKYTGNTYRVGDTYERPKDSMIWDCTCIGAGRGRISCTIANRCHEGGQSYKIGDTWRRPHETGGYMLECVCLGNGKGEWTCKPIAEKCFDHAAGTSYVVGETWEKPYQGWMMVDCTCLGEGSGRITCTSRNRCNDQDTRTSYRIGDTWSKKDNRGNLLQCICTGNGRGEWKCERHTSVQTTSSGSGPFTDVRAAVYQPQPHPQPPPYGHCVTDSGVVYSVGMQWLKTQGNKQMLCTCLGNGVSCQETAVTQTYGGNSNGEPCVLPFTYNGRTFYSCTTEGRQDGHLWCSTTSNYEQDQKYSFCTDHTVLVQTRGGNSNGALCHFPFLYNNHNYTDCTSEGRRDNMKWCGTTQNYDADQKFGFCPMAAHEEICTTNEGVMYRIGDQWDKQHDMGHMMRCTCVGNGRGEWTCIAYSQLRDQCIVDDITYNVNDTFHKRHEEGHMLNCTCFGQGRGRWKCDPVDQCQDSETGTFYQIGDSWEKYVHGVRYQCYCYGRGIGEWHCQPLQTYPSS
Sequence of Alexa 488-labeled human plasma FN (P02751 32-608 limits assumed): as above

Substance	IC50 [1]	% dose remaining at the site of injection after 24 hours [2]	apparent half-life at the site of injection [2]	Kd [3]	migration into the site of injury (ear tag wound) ([2]; fluorescence imaging)	reduction of activity upon PEGylation [4]
20 kDa PEG-FUD: FUD N-terminally mono-PEGylated with 20 kDa linear methoxy-PEG propionaldehyde (PEG20kDa-KDQSPLAGESGETEYITEVYGNQQNPVDIDKKLPNETGFSGNMVETEDT)	0.023 µM	3.5%	6.2 h	0.01 µM	–	–
10 kDa PEG-FUD: FUD N-terminally mono-PEGylated with 10 kDa linear methoxy-PEG propionaldehyde (PEG10kDa-KDQSPLAGESGETEYITEVYGNQQNPVDIDKKLPNETGFSGNMVETEDT)	0.017 µM	1.2%	2.8 h	0.0046 µM	migration of 10 K PEG-FUD into the site of injury	–
40 kDa PEG-FUD: FUD N-terminally mono-PEGylated with 40 kDa branched methoxy-PEG propionaldehyde ({mPEG 40 kDa branched}-KDQSPLAGESGETEYITEVYGNQQNPVDIDKKLPNETGFSGNMVETEDT)	0.02 µM	7.9%	8.7 h	0.0147 µM	–	–
PEG-G120K-GH: literature example of a PEGylated protein with reduced activity	–	–	–	–	–	186 fold

From patent US10828372B2, “Compositions and methods for the inhibition of fibrosis” (WISCONSIN ALUMNI RESEARCH FOUNDATION, priority 2017, dated 2020)
